From patent publication US5223508A, “Pyridyl carboximidamide compounds useful in treating blood pressure” (Kirin Beer Kabushiki Kaisha, priority 1992, dated 1993)
Blank lines part the entries; values can stand above or below the compound they belong to.

Columns and labels:
[1] = test system: potassium channel; details: literature; cited from earlier work
[2] = test system: animal; details: literature; cited from earlier work
[3] = test system: potassium channel; experiment: Potassium channel activating effect (86Rb efflux from rat thoracic aorta); parameters: species or system male Wistar rats; details: 10^-4M, 8 minutes
Procedure: Male Wistar rats (weighing 250-350 g) were dehematized to death, and thoracic aortae were rapidly isolated. The aorta was opened along the longitudinal axis to prepare a flat sheet. The preparation was loaded with ^86 Rb in the Krebs-Ringer solution which contained ^86 Rb in the concentration of 10 μCi/ml and was gassed with 95% O2 -5% CO2 at 37° C. for 2 hours. The preparation was then transferred to a Krebs-Ringer solution not containing ^86 Rb, and washed to remove excess radioactivity for 18 minutes by refreshing the solution every 2 minutes. Finally the preparation was placed into a Krebs-Ringer solution containing each compound (10^-4M) for 8 minutes.
The amount of ^86 Rb efflux from the preparation in each period was determined with a γ-counter.
The increment in efflux rate during the application of the compound was expressed as percent of the efflux before the application of the compound.

[4] = test system: isolated rat aortae; experiment: Vasorelaxing effect on the isolated rat aortae (40 mM KCl contraction); parameters: species or system male Wistar rats; details: inhibition of 40 mM KCl-induced contraction, isolated rat aorta
Procedure: Vasorelaxing effect on the isolated rat aortae
The compounds of the present invention were tested for their physiological activities by measuring the tension of isolated rat aortae isometrically.
Thoracic aortae obtained from male Wistar rats (weighing 250-350 g) were cut into ring segments about 3 mm long. The ring preparation was placed in an organ bath filled with 10 ml of Krebs-Ringer solution that was maintained at 37° C. and gassed with 95% O2 -5% CO2.
The preparation in the organ bath was allowed to equilibrate under resting tension of 1 g. After equilibration period, the solution in the organ bath was replaced with an isotonic solution containing 40 mM KCl to contract the preparation.
After the contraction induced by KCl had reached plateau, the concentration-response relationship for the test compound was determined by means of cumulative addition.
The relaxation response of the test compounds was expressed as the percent inhibition of the contraction induced by KCl, and the IC50 value, which is a concentration required for inhibiting the contraction induced by KCl to an extent of 50%, was calculated by the Probit method from the concentration-response curve.

[5] = test system: male ddY mice; experiment: Effect on hypoxia (survival time); assay type: in vivo; details: oral, 96% N2 -4% O2, mean ± S.E.M.
Procedure: Effect of the compound of the present invention on hypoxia
The effect of the compound of the present invention [test compound: N-cyano-N'-(2-nitroxyethyl)-3-pyridinecarboximidamide (compound (13))] on hypoxia was examined in male ddY mice (4 week old). Mice were exposed to a gas mixture of 96% N2 -4% O2 that was streamed in a flow rate of 5 l/min.
The time from the onset of the gas stream till the stop of respiration [survival time (sec)] was measured.
The test compound was orally administered in the dosage form of a 2% suspension in gum arabic 30 minutes before the onset of the gas streaming. The control group was administered a gum arabic suspension only.

Compound: CC1(C)Oc2ccc(C#N)cc2[C@@H](N2CCCC2=O)[C@@H]1O (relative stereo) [chromakalim]
- potassium channel activating effect [1]: potassium channel activating effect
- effects in animal experiments [2]: vasodilating effect, antihypertensive effect, coronary blood flow increasing effect, cerebral vasodilative effect and bronchodilatative effect

Compound: O=C(NCCO[N+](=O)[O-])c1cccnc1 [Nicorandil, nicorandil]
- potassium channel activating effect [1]: potassium channel activating effect
- effects in animal experiments [2]: vasodilating effect, antihypertensive effect, coronary blood flow increasing effect, cerebral vasodilative effect and bronchodilatative effect

Compound: N#CNC(=NCCc1ccccc1)c1cccnc1 [(27), N-cyano-N'-(2-phenylethyl)-3-pyridinecarboximidamide]
- Increment of Efflux (86Rb) [3]: 206.61%

Compound: CC(N/C(=N\C#N)Nc1ccncc1)C(C)(C)C (centres unmarked) [pinacidil]
- potassium channel activating effect [1]: potassium channel activating effect
- effects in animal experiments [2]: vasodilating effect, antihypertensive effect, coronary blood flow increasing effect, cerebral vasodilative effect and bronchodilatative effect

- IC50 [4]: 10 µM
Compound: COc1ccc(NC(=NC#N)c2cccnc2)c(OC)n1 [(40), N-cyano-N'-3-(2,6-dimethoxypyridine)-3-pyridinecarboximidamide]

Compound: N#CNC(=NCCO[N+](=O)[O-])c1cccnc1 [Compound (13), N-cyano-N'-(2-nitroxyethyl)-3-pyridinecarboximidamide]
- Survival Time ([5]; 0.3 mg/kg): 130.27 ± 9.32 s
- Survival Time ([5]; 1.0 mg/kg): 201.00 ± 13.40 s
- Survival Time ([5]; 3.0 mg/kg): 523.15 ± 48.57 s
- Increment of Efflux (86Rb) [3]: 213.53%

Compound: N#CNC(=NCc1ccccc1)c1cccnc1 [(17), N-cyano-N'-benzyl-3-pyridinecarboximidamide]
- Increment of Efflux (86Rb) [3]: 135.41%

Compound: N#CNC(=NCCO[N+](=O)[O-])c1ccncc1 [(41), N-cyano-N'-(2-nitroxyethyl)-4-pyridinecarboximidamide]
- Increment of Efflux (86Rb) [3]: 126.88%
